Data on three compounds can be found in patent publication US11479805B2, “Combinatorial single molecule analysis of chromatin” (The General Hospital Corporation, priority 2015, dated 2022).

Assay [1] deals with acetylation marks in ESCs. Put plainly: Western blot of acetylation marks in ESCs after HDAC or p300 inhibition. It is filed as cell-based, Mouse. Particulars: FIG. 12B, corresponds to FIG. 3D. The protocol: FIG. 12A-12B. […] (A) Scatter plot of the observed overlap of the indicated modification pair versus the overlap expected by chance. Corresponds to the data in FIG. 3A, 3B. […] Corresponds to the data in FIG. 3D.
(§1) For HDAC inhibition, 6 million ES cells were plated on a 150 cm plate. 0.5M stock solution of Sodium butyrate (Sigma, 303410) was prepared fresh for each experiment, and diluted in cell media to a final concentration of 1 mM. Following 6 hours of treatment (unless otherwise noted in text), cells were collected and washed with PBS. For p300 inhibition, 4 million ES cells were plated on a 150 cm plate. 25 mM stock solution of C646 (Sigma, SML0002) was prepared and diluted in cell media to a final concentration of 35 μM. Cells were treated for 24 hours, then collected and washed with PBS. For EZH2 inhibition, 2.5 million Karpas422 B-cell non-Hodgkin's lymphoma cells were suspended in 10 ml media. A 10 mM stock solution of the EZH2 inhibitor GSK126 (32) was prepared and diluted 1:1000 in cell media. Cells were harvested 3 days following treatment.
Background: Immunoblotting shows a protein as a band on a membrane.

For assay [2], the system named is H3K9ac, H3K27ac, H3K4me3 and H3K27me3 on nucleosomes from ESCs. Put plainly: Single-molecule decoding of nucleosomes from ESCs treated with HDAC inhibitor or p300 inhibitor. Conditions: for change in H3K4me3 or H3K27me3 on nucleosomes: over the course of treatment (sodium butyrate 6 hours, C646 24 hours); for change in acetylation marks (H3K9ac, H3K27ac) on nucleosomes: sodium butyrate 1 mM 6 hours, C646 35 μM 24 hours, vs DMSO; for change in acetylation marks (H3K9ac, H3K27ac) on nucleosomes / preference of acetylation change for H3K4me3-marked nucleosomes (combination H3K27ac and H3K4me3): FIG. 3D; for preference of acetylation change for H3K4me3-marked nucleosomes (combination H3K27ac and H3K4me3): sodium butyrate 6 hours, C646 24 hours. The format is cell-based, Mouse. The protocol:
Applicants treated ESCs with a pan-HDAC inhibitor (sodium butyrate; 6 hours) or with a p300 HAT inhibitor (C646; 24 hours) and probed extracted nucleosomes for H3K9ac, H3K27ac, H3K4me3 and H3K27me3.
as §1
10 million cells were collected and washed twice with PBS, then resuspended in 500 μl of Lysis buffer (50 mM Tris-HCl pH 7.5, 150 mM NaCl, 1% Triton® X-100, 0.1% sodium deoxycholate, 5 mM CaCl2), supplemented with protease inhibitors (ThermoFisher Scientific, 78425), phosphatase inhibitors (ThermoFisher Scientific, 78420) and HDAC inhibitors (Sodium butyrate, Sigma 303410). Micrococcal Nuclease (ThermoFisher Scientific, 88216) was added to lysis buffer at a concentration of 1 unit per milliliter. The suspension is incubated at 4° C. for 1 hour to lyse the cells, after which MNase is activated by incubating at 37° C. for 20 min and inactivated by addition of EGTA at a final concentration of 20 mM. Next, Applicants centrifuged the lysate for 10 min at max speed and supernatant was transferred to a new tube. 10% of the lysate was used to extract DNA (QIAGEN PCR purification kit, 28104) and run on 2% agarose gel to verify MNase digestion. 100 μl of the lysate were used for ligation of fluorescent, biotinylated adaptors: sample was diluted 1:1 in ligation reaction mixture containing End-It™ DNA End-Repair Kit (Epicentre, ER0720) and Fast-Link™ DNA Ligation Kit (Epicentre, LK0750H). Ligation buffer (100 μl) contained 20 μl ligase buffer, 5 μl of 10 mM dNTPs, 16 μl of 10 Mm ATP, 8 μl End-It, 8 μl fast-link ligase, 1 μl protease inhibitors, 1 μl phosphatase inhibitors, 2 μl of 50 mM sodium butyrate solution, 8 μl annealed adaptors (see sequences below) and H2O. Following at least two hours of ligation at room temperature, 1.5 ml of PBS (supplemented with inhibitors) was added to the sample. Next, the sample was concentrated on an Amicon ultra-4 centrifugal filter unit with ultracel-100 membrane (Millipore, UFC810024) for 15 minutes, and the Pac1 enzymatic reaction (NEB, R0547S) was performed in order to digest adaptor concatemers (adaptors were designed to form Pac1 restriction site in cases of self-ligation). Following Pac1 digestion, nucleosomes were separated on 10-30% glycerol gradients for 18 hours at 35,000 rpm. Fractions were collected and analyzed on 6% DNA retardation gels (ThermoFisher Scientific, EC6365BOX). Gels were imaged with Typhoon trio+imager (Amersham Biosciences), and fractions containing mono-nucleosomes were combined and concentrated on an Amicon Ultra-0.5 Centrifugal Filter Unit with Ultracel-100 membrane (Millipore, UFC510096). For preparation of biotinylated histones (FIG. 2E), histones were purified from ESCs using acid extraction and TCA precipitation as described previously (89). Histones biotinylation was carried out with EZ-Link Sulfo-NHS-Biotinylation Kit (Thermo Scientific, 21425) according to manufacturer's protocol.

Assay [3] concerns H3K27me3 on bivalent nucleosomes of Karpas422 lymphoma cells. Briefly: Single-molecule decoding of H3K27me3 and H3K4me3 on nucleosomes from EZH2 gain-of-function lymphoma cells treated with EZH2 inhibitor. It is filed as cell-based, human. Conditions: treatment for 3 days, FIG. 2G. An excerpt: Genomic loci marked by bivalent chromatin in ESCs are frequently deregulated in cancer cells (26). Moreover, the Polycomb and trithorax complexes that catalyze H3K27me3 and H3K4me3 are often mutated in cancer (27, 28). Applicants therefore leveraged the single-molecule platform to investigate these modifications in cancer cells (FIG. 2B, 2C, 10B). First, Applicants examined three cell lines that lack known Polycomb or trithorax mutations: T-cell acute leukemia (DND-41), embryonic kidney (HEK293), and glioblastoma (GSC8). […] Applicants next examined a leukemia line (SKM-1) with a loss-of-function (LOF) mutation of the PRC2 subunit EZH2 (29, 30) (FIG. 2C). Applicants observed a drastic reduction of H3K27me3-marked nucleosomes, consistent with inactivation of this H3K27 methyltransferase. Applicants also examined a lymphoma cell line (Karpas422) with a gain-of-function (GOF) EZH2 mutation that increases its catalytic activity (30). Here Applicants detected H3K27me3 on a very high proportion of nucleosomes (15%). […] Even when controlling for the large fraction of H3K27me3-marked nucleosomes in these cells, the proportion of bivalent nucleosomes is ˜4-fold greater than expected from random overlap. […] This may reflect increased nucleosome turnover and/or preferential demethylation in such regions. […]

For the compound `CC1=NN(c2ccc(C(=O)O)cc2)C(=O)/C1=C\c1ccc(-c2cc(C)c(C)cc2[N+](=O)[O-])o1` [C646], the “acetylation marks by Western blot” value in assay [1] is “decrease in acetylation”. In addition, in assay [2], the “change in H3K4me3 or H3K27me3 on nucleosomes” value was “Neither drug altered”; the “change in acetylation marks (H3K9ac, H3K27ac) on nucleosomes” value is reported as “opposite affect”; the “preference of acetylation change for H3K4me3-marked nucleosomes (combination H3K27ac and H3K4me3)” value was “H3K4me3-marked nucleosomes were more likely to retain their initial state”.
Turning to `CC[C@H](C)n1cc(C)c2c(C(=O)NCc3c(C)cc(C)[nH]c3=O)cc(-c3ccc(N4CCNCC4)nc3)cc21` [GSK126], the “loss of H3K27me3 from bivalent nucleosomes” value in assay [3] is recorded as “preferential loss of H3K27me3 from bivalent nucleosomes”.
For `CCCC(=O)[O-].[Na+]` [sodium butyrate, Sodium butyrate], the “acetylation marks by Western blot” value in assay [1] is listed as “increase in acetylation marks”. In assay [2], the “change in H3K4me3 or H3K27me3 on nucleosomes” value is on record as “Neither drug altered”; the “change in acetylation marks (H3K9ac, H3K27ac) on nucleosomes” value is recorded as “significantly increased”; the “preference of acetylation change for H3K4me3-marked nucleosomes (combination H3K27ac and H3K4me3)” value is “increased acetylation preferentially affected H3K4me3-marked nucleosomes”.
